Source: patent US7138361B2, “Herbicidal heterocycles” (E. I. du Pont de Nemours and Company, priority 2000, dated 2006)

Experiments:
Format in all cases: in vivo
[1] = test system: Surinam grass (Brachiaria decumbens); experiment: Test B postemergence; conditions: 13 to 15 days
From the text: (§1) Seeds selected from barnyardgrass (Echinochloa crus-galli), Surinam grass (Brachiaria decumbens), cocklebur (Xanthium strumarium), corn (Zea mays), crabgrass (Digitaria sanguinalis), giant foxtail (Setaria faberii), lambsquarters (Chenopodium album), morning glory (Ipomoea hederacea), pigweed (Amaranthus retroflexus), rice (Oryza saliva) and velvetleaf (Abutilon theophrasti) were planted and treated preemergence with test chemicals formulated in a non-phytotoxic solvent mixture which included a surfactant.
(§2) At the same time, plants selected from these crop and weed species and also blackgrass (Alopecurus myosuroides), wheat (Triticum aestivum) and wild oat (Avena fatua) were treated with postemergence applications of test chemicals formulated in the same manner. Plants ranged in height from 2 to 18 cm (1- to 4-leaf stage) for postemergence treatments. Plant species in the flooded paddy test consisted of rice (Oryza saliva), smallflower flatsedge (Cyperus difformis), duck salad (Heteranthera limosa) and barnyardgrass (Echinochloa crus-galli) grown to the 2-leaf stage for testing. Treated plants and controls were maintained in a greenhouse for 13 to 15 days, after which time all species were compared to controls and visually evaluated. Plant response ratings, summarized in Table B, are based on a scale of 0 to 100 where 0 is no effect and 100 is complete control. A dash (-) response means no test result.

[2] = test system: barnyardgrass (Echinochloa crus-galli); experiment: Test B postemergence; conditions: 13 to 15 days
From the text: as §1, §2

[3] = test system: blackgrass (Alopecurus myosuroides); experiment: Test B postemergence; conditions: 13 to 15 days
From the text: as §1, §2

[4] = test system: cocklebur (Xanthium strumarium); experiment: Test B postemergence; conditions: 13 to 15 days
From the text: as §1, §2

corn (Zea mays) [5] = experiment: Test B postemergence; conditions: 13 to 15 days
From the text: as §1, §2

[6] = test system: crabgrass (Digitaria sanguinalis); experiment: Test B postemergence; conditions: 13 to 15 days
From the text: as §1, §2

[7] = test system: giant foxtail (Setaria faberii); experiment: Test B postemergence; conditions: 13 to 15 days
From the text: as §1, §2

[8] = test system: lambsquarters (Chenopodium album); experiment: Test B postemergence; conditions: 13 to 15 days
From the text: as §1, §2

[9] = test system: morning glory (Ipomoea hederacea); experiment: Test B postemergence; conditions: 13 to 15 days
From the text: as §1, §2

[10] = test system: pigweed (Amaranthus retroflexus); experiment: Test B postemergence; conditions: 13 to 15 days
From the text: as §1, §2

[11] = test system: velvetleaf (Abutilon theophrasti); experiment: Test B postemergence; conditions: 13 to 15 days
From the text: as §1, §2

[12] = test system: wheat (Triticum aestivum); experiment: Test B postemergence; conditions: 13 to 15 days
From the text: as §1, §2

wild oat (Avena fatua) = experiment: Test B postemergence; conditions: 13 to 15 days
From the text: as §1, §2

[13] = test system: Surinam grass (Brachiaria decumbens); experiment: Test B preemergence
From the text: as §1, §2

[14] = test system: barnyardgrass (Echinochloa crus-galli); experiment: Test B preemergence
From the text: as §1, §2

[15] = test system: cocklebur (Xanthium strumarium); experiment: Test B preemergence
From the text: as §1, §2

corn (Zea mays) [16] = experiment: Test B preemergence
From the text: as §1, §2

[17] = test system: crabgrass (Digitaria sanguinalis); experiment: Test B preemergence
From the text: as §1, §2

[18] = test system: giant foxtail (Setaria faberii); experiment: Test B preemergence
From the text: as §1, §2

[19] = test system: lambsquarters (Chenopodium album); experiment: Test B preemergence
From the text: as §1, §2

[20] = test system: morning glory (Ipomoea hederacea); experiment: Test B preemergence
From the text: as §1, §2

[21] = test system: pigweed (Amaranthus retroflexus); experiment: Test B preemergence
From the text: as §1, §2

rice (Oryza saliva) [22] = experiment: Test B preemergence
From the text: as §1, §2

[23] = test system: velvetleaf (Abutilon theophrasti); experiment: Test B preemergence
From the text: as §1, §2

[24] = test system: barnyardgrass (Echinochloa crus-galli); experiment: Test C flooded paddy test; conditions: for Barnyardgrass plant response rating: Flooded Paddy, scale 0 to 100, 0 no effect, 100 complete control; for Plant response rating, Barnyardgrass: flooded paddy test, scale 0 to 100 (0 no effect, 100 complete control)
Method: (§3) At the same time, plants selected from these crop and weed species and also winter barley (Hordeum vulgare), blackgrass (Alopecurus myosuroides), canary grass (Phalaris minor), chickweed (Stellaria media), downy brome (Bromus tectorum), green foxtail (Setaria viridis), Italian ryegrass (Lolium multiflorum), wheat (Triticum aestivum), wild oat (Avena fatua) and windgrass (Apera spica-venti) were treated with postemergence applications of some of the test chemicals formulated in the same manner. Plants ranged in height from 2 to 18 cm (1- to 4-leaf stage) for postemergence treatments. Plant species in the flooded paddy test consisted of rice (Oryza saliva), smallflower flatsedge (Cyperus difformis), duck salad (Heteranthera limosa) and barnyardgrass (Echinochloa crus-galli) grown to the 2-leaf stage for testing. Treated plants and controls were maintained in a greenhouse for 12 to 14 days, after which time all species were compared to controls and visually evaluated. Plant response ratings, summarized in Table C, are based on a scale of 0 to 100 where 0 is no effect and 100 is complete control. A dash (-) response means no test result.

[25] = test system: duck salad (Heteranthera limosa); experiment: Test C flooded paddy test; conditions: for Ducksalad plant response rating: Flooded Paddy, scale 0 to 100, 0 no effect, 100 complete control; for Plant response rating, Ducksalad: flooded paddy test, scale 0 to 100 (0 no effect, 100 complete control)
Method: as §3

rice (Oryza saliva) [26] = experiment: Test C flooded paddy test; conditions: for Rice plant response rating: Flooded Paddy, scale 0 to 100, 0 no effect, 100 complete control; for Plant response rating, Rice: flooded paddy test, scale 0 to 100 (0 no effect, 100 complete control)
Method: as §3

[27] = test system: smallflower flatsedge (Cyperus difformis); experiment: Test C flooded paddy test; conditions: for Flatsedge plant response rating: Flooded Paddy, scale 0 to 100, 0 no effect, 100 complete control; for Plant response rating, Flatsedge: flooded paddy test, scale 0 to 100 (0 no effect, 100 complete control)
Method: as §3

[28] = Rate 125 g/ha, scale 0 (no effect) to 100 (complete control)
[29] = Rate 500 g/ha, scale 0 to 100, 0 is no effect, 100 is complete control
[30] = Preemergence, Rate 500 g/ha, scale 0 to 100, 0 no effect, 100 complete control
[31] = preemergence, Rate 125 g/ha, scale of 0 to 100 where 0 is no effect and 100 is complete control, 13 to 15 days

CC(C)(C)c1ccn(C2CCN(c3cccc(OC(F)(F)C(F)F)c3)C2=O)n1 (centres unmarked) [Compound 48]
Plant response rating, Surinam grass [1, 28]: 0
Plant response rating, Surinam grass [1, 29]: 0
Plant response rating, Barnyardgrass [2, 28]: 0
Plant response rating, Barnyardgrass [2, 29]: 0
Plant response rating, Blackgrass [3, 28]: 0
Plant response rating, Blackgrass [3, 29]: 0
Plant response rating, Cocklebur [4, 28]: 0
Plant response rating, Cocklebur [4, 29]: 0
Plant response rating, Corn (corn (Zea mays) [5]; [28]): 0
Plant response rating, Corn (corn (Zea mays) [5]; [29]): 0
Plant response rating, Crabgrass [6, 28]: 0
Plant response rating, Crabgrass [6, 29]: 0
Plant response rating, Foxtail, Giant [7, 28]: 0
Plant response rating, Foxtail, Giant [7, 29]: 0
Plant response rating, Lambsquarters [8, 28]: 0
Plant response rating, Lambsquarters [8, 29]: 80
Plant response rating, Morningglory [9, 28]: 0
Plant response rating, Morningglory [9, 29]: 0
Plant response rating, Pigweed [10, 28]: 0
Plant response rating, Pigweed [10, 29]: 0
Plant response rating, Velvetleaf [11, 28]: 0
Plant response rating, Velvetleaf [11, 29]: 0
Plant response rating, Wheat [12, 28]: 0
Plant response rating, Wheat [12, 29]: 0
Plant response rating, Wild Oat (wild oat (Avena fatua); [28]): 0
Plant response rating, Wild Oat (wild oat (Avena fatua); [29]): 0
Plant response rating, Surinam grass [13, 30]: 0
Plant response rating, Surinam grass [13, 31]: 0
Plant response rating, Barnyardgrass [14, 30]: 0
Plant response rating, Barnyardgrass [14, 31]: 0
Plant response rating, Cocklebur [15, 30]: 0
Plant response rating, Cocklebur [15, 31]: 0
Plant response rating, Corn (corn (Zea mays) [16]; [30]): 0
Plant response rating, Corn (corn (Zea mays) [16]; [31]): 0
Plant response rating, Crabgrass [17, 30]: 80
Plant response rating, Crabgrass [17, 31]: 0
Plant response rating, Foxtail, Giant [18, 30]: 0
Plant response rating, Foxtail, Giant [18, 31]: 0
Plant response rating, Lambsquarters [19, 30]: 100
Plant response rating, Lambsquarters [19, 31]: 100
Plant response rating, Morningglory [20, 30]: 0
Plant response rating, Morningglory [20, 31]: 0
Plant response rating, Pigweed [21, 30]: 0
Plant response rating, Pigweed [21, 31]: 0
Plant response rating, Rice (rice (Oryza saliva) [22]; [30]): 0
Plant response rating, Rice (rice (Oryza saliva) [22]; [31]): 0
Plant response rating, Velvetleaf [23, 30]: 0
Plant response rating, Velvetleaf [23, 31]: 0
Barnyardgrass plant response rating ([24]; Rate 250 g/ha): 100
Barnyardgrass plant response rating ([24]; Rate 500 g/ha): 100
Plant response rating, Barnyardgrass ([24]; Rate 62 g/ha): 20
Plant response rating, Barnyardgrass ([24]; Rate 125 g/ha): 40
Ducksalad plant response rating ([25]; Rate 250 g/ha): 70
Ducksalad plant response rating ([25]; Rate 500 g/ha): 90
Plant response rating, Ducksalad ([25]; Rate 62 g/ha): 0
Plant response rating, Ducksalad ([25]; Rate 125 g/ha): 20
Rice plant response rating (rice (Oryza saliva) [26]; Rate 250 g/ha): 20
Rice plant response rating (rice (Oryza saliva) [26]; Rate 500 g/ha): 50
Plant response rating, Rice (rice (Oryza saliva) [26]; Rate 62 g/ha): 0
Plant response rating, Rice (rice (Oryza saliva) [26]; Rate 125 g/ha): 0
Flatsedge plant response rating ([27]; Rate 250 g/ha): 100
Flatsedge plant response rating ([27]; Rate 500 g/ha): 100
Plant response rating, Flatsedge ([27]; Rate 62 g/ha): 90
Plant response rating, Flatsedge ([27]; Rate 125 g/ha): 90

CC(C)c1ccn(C2OCN(c3cccc(OC(F)(F)F)c3)C2=O)n1 (centres unmarked) [Compound 65]
Plant response rating, Surinam grass [1, 28]: 20
Plant response rating, Surinam grass [1, 29]: 40
Plant response rating, Barnyardgrass [2, 28]: 0
Plant response rating, Barnyardgrass [2, 29]: 100
Plant response rating, Blackgrass [3, 28]: 0
Plant response rating, Blackgrass [3, 29]: 0
Plant response rating, Cocklebur [4, 28]: 20
Plant response rating, Cocklebur [4, 29]: 30
Plant response rating, Corn (corn (Zea mays) [5]; [28]): 0
Plant response rating, Corn (corn (Zea mays) [5]; [29]): 0
Plant response rating, Crabgrass [6, 28]: 0
Plant response rating, Crabgrass [6, 29]: 100
Plant response rating, Foxtail, Giant [7, 28]: 0
Plant response rating, Foxtail, Giant [7, 29]: 0
Plant response rating, Lambsquarters [8, 28]: 60
Plant response rating, Lambsquarters [8, 29]: 70
Plant response rating, Morningglory [9, 28]: 0
Plant response rating, Morningglory [9, 29]: 0
Plant response rating, Pigweed [10, 28]: 0
Plant response rating, Pigweed [10, 29]: 0
Plant response rating, Velvetleaf [11, 28]: 0
Plant response rating, Velvetleaf [11, 29]: 0
Plant response rating, Wheat [12, 28]: 0
Plant response rating, Wheat [12, 29]: 0
Plant response rating, Wild Oat (wild oat (Avena fatua); [28]): 0
Plant response rating, Wild Oat (wild oat (Avena fatua); [29]): 0
Plant response rating, Surinam grass [13, 30]: 20
Plant response rating, Surinam grass [13, 31]: 0
Plant response rating, Barnyardgrass [14, 30]: 100
Plant response rating, Barnyardgrass [14, 31]: 90
Plant response rating, Cocklebur [15, 30]: 20
Plant response rating, Cocklebur [15, 31]: 0
Plant response rating, Corn (corn (Zea mays) [16]; [30]): 0
Plant response rating, Corn (corn (Zea mays) [16]; [31]): 0
Plant response rating, Crabgrass [17, 30]: 70
Plant response rating, Crabgrass [17, 31]: 20
Plant response rating, Foxtail, Giant [18, 30]: 70
Plant response rating, Foxtail, Giant [18, 31]: 20
Plant response rating, Lambsquarters [19, 30]: 100
Plant response rating, Lambsquarters [19, 31]: 100
Plant response rating, Morningglory [20, 30]: 0
Plant response rating, Morningglory [20, 31]: 0
Plant response rating, Pigweed [21, 30]: 100
Plant response rating, Pigweed [21, 31]: 100
Plant response rating, Rice (rice (Oryza saliva) [22]; [30]): 20
Plant response rating, Rice (rice (Oryza saliva) [22]; [31]): 0
Plant response rating, Velvetleaf [23, 30]: 20
Plant response rating, Velvetleaf [23, 31]: 0
Barnyardgrass plant response rating ([24]; Rate 250 g/ha): 100
Barnyardgrass plant response rating ([24]; Rate 500 g/ha): 100
Plant response rating, Barnyardgrass ([24]; Rate 62 g/ha): 40
Plant response rating, Barnyardgrass ([24]; Rate 125 g/ha): 80
Ducksalad plant response rating ([25]; Rate 250 g/ha): 30
Ducksalad plant response rating ([25]; Rate 500 g/ha): 90
Plant response rating, Ducksalad ([25]; Rate 62 g/ha): 0
Plant response rating, Ducksalad ([25]; Rate 125 g/ha): 0
Rice plant response rating (rice (Oryza saliva) [26]; Rate 250 g/ha): 90
Rice plant response rating (rice (Oryza saliva) [26]; Rate 500 g/ha): 90
Plant response rating, Rice (rice (Oryza saliva) [26]; Rate 62 g/ha): 0
Plant response rating, Rice (rice (Oryza saliva) [26]; Rate 125 g/ha): 40
Flatsedge plant response rating ([27]; Rate 250 g/ha): 100
Flatsedge plant response rating ([27]; Rate 500 g/ha): 100
Plant response rating, Flatsedge ([27]; Rate 62 g/ha): 0
Plant response rating, Flatsedge ([27]; Rate 125 g/ha): 100
